This is an account of results in publication PMC6002838 (The Journal of antibiotics, 2017).

SMILES strings stand for the structures. In brackets after ≈: the same amount, converted by molar mass.

The target of one data set is MDM2-p53 complex (Homo sapiens, UniProt Q00987). As to the kind of experiment: MDM2-p53 complex inhibition assay. It counts as binding. To be noted: for inhibition at 100 µM: read-out: Inhibition of MDM2-p53 complex formation (pre-treat).
Data set [1] relates to KSHV LANA latency antigen. In kind it is cell-based, Kaposi Sarcoma Herpesvirus (KSHV). To be noted: 100 μM, 6 days, BC3 cells, flow cytofluorometry.
Data set [2] can be described thus: Cytotoxicity on HUVEC cells. In kind it is cell-based. The settings on record: human, HUVEC cells (primary human umbilical cord endothelial cells).
A short description of data set [3]: Cytotoxicity on THP-1 cells. The settings on record: human, THP-1 cells (KSHV-negative macrophage cell line). It counts as cell-based.
A short description of data set [4]: Cytotoxicity on BC3 cells. It counts as cell-based. To be noted: human.
The subject of data set [5] is latent KSHV DNA in BC3 cells. In words: qPCR detection of latent KSHV DNA. It counts as cell-based, Kaposi Sarcoma Herpesvirus (KSHV). (Quantitative PCR measures a nucleic acid by following its amplification.)

Sequence of MDM2-p53 complex (Q00987 whole entry, one chain of several): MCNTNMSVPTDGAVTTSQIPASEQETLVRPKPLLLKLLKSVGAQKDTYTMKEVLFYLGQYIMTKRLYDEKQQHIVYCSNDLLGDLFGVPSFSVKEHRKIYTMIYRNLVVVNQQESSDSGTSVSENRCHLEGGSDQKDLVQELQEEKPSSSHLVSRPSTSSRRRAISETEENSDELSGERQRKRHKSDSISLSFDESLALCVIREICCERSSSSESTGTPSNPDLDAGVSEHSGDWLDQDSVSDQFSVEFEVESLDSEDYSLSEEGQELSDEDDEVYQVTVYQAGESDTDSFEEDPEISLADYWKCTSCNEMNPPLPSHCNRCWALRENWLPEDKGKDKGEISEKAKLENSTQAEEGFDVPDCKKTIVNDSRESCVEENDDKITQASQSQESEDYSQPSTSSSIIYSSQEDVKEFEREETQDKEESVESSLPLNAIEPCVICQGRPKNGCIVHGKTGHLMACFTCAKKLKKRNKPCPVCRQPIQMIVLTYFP

The term inhibition denotes the share of the control response that was lost under treatment. `Cc1cc(NS(=O)(=O)c2ccc(N)cc2)no1` [BC6, sulfamethoxazole]: the inhibition at 100 µM at MDM2-p53 complex is 50%.

As to `CS(=O)(=O)Nc1ccc([N+](=O)[O-])cc1Oc1ccccc1` [Nimesulide, nimesulide], in data set [1], the LANA inhibition came out at 54±5% and the “Residual fluorescence (RF)” value is recorded as “about 46%”.

For `Nc1ccc(S(N)(=O)=O)cc1` [SA4, sulfanilamide], in data set [1], the LANA inhibition is given as 78±6% and the “Residual fluorescence (RF)” value stood at 21%. Also, the inhibition at 100 µM at MDM2-p53 complex came out at 56%.

By CC50 is commonly meant the concentration at which the toxic effect on the cells reaches its halfway point. A lower CC50 goes with greater toxicity to the cells. On to `[H]/N=C(/N)NS(=O)(=O)c1ccc(N)cc1` [SG3, sulfaguanidine], for which the half-maximal cytotoxic concentration (CC50) at 6 days in data set [2] was 500 ± 125 µg/mL (≈ 2330 µM); in data set [3], 125 ± 31 µg/mL (≈ 583 µM); in data set [4] it was 100 ± 25 µg/mL (≈ 467 µM). In addition, the “SI (CC50/EC50)” value in data set [5] was 4.76. Besides, the inhibition at 100 µM on MDM2-p53 complex was about 48%.

Consider `Nc1ccc(S(=O)(=O)Nc2nccs2)cc1` [ST5, sulfathiazole], for which the CC50 at 6 days was 250 ± 62 µg/mL (≈ 979 µM) in data set [2], 30 ± 15 µg/mL (≈ 117 µM) in data set [3] and 100 ± 25 µg/mL (≈ 392 µM) in data set [4]. In addition, the “SI (CC50/EC50)” value in data set [5] was 16.6. Further, on MDM2-p53 complex (100 μM, compounds added after formation of the complex), the “Disruption of MDM2-p53 complex (post-treat)” value is “about 48%”. Moreover, the inhibition at 100 µM at MDM2-p53 complex is about 70%.
